Common to all, as to experiment: NCI-60 cell line screen, 48 h
The subject of assay [1] is OVCAR-5.
For assay [2], the system named is A549.
In assay [3] the test system is UACC-257.
In assay [4] the test system is HCC 2998.
For assay [5], the system named is KM12.
Assay [6] concerns HOP-62.
Assay [7] relates to IGROV-1.
The test system of assay [8] is SK-MEL-5.
The test system of assay [9] is M14.
In assay [10] the test system is OVCAR-3.
Assay [11] relates to UACC-62.
In assay [12] the test system is NCI-H460.
The subject of assay [13] is SK-MEL-28.
The subject of assay [14] is OVCAR-8.
Assay [15] concerns SF-268.
Assay [16] deals with Malme-3M.
Assay [17] relates to HOP-92.

The record followed here is ChEMBL document CHEMBL1201862, “PubChem BioAssay data set” (2004).

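Compound exposure: 48 hours, 5 concentrations, 96-well plates. GI50 = concentration required for 50% inhibition of growth.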 The source made the active and inactive calls. Cut-off read from the data, not from the text of the source: active = GI50 up to about 1.1 µM and inactive = higher. Where only a bound is given, the exact number is not on record here.

With `N#CCCN(c1ccc(/C=C2\N=C(c3ccc(Cl)cc3)OC2=O)cc1)S(=O)(=O)c1ccccc1`, the GI50 in assay [1], in [2], in assay [3], in assay [4], in assay [5] and in [6] was > 100 µM (inactive) each time. The GI50 in assay [7], in assay [8], in assay [9], in assay [10], in [11] and in assay [12] was > 100 µM (inactive) in each case. Further, the GI50 in assay [13], in [14] and in [15] was > 100 µM (inactive) each time.
Turning to `CN(C)CCn1c2c3ccccc3ccc2c2oc(=O)c3ccccc3c21`, the GI50 was 19.5 µM (inactive) in assay [1]; 3.88 µM (inactive) in assay [2]; 4.83 µM (inactive) in assay [3]; 9.86 µM (inactive) in [16]; 6.71 µM (inactive) in assay [5]; 13.2 µM (inactive) in assay [6]. The GI50 in [7] is 12.1 µM (inactive); in assay [17] it was 5.58 µM (inactive); in [9], 6.12 µM (inactive); in [10], 4.4 µM (inactive); in [11] it was 7.35 µM (inactive); in assay [12] it was 2.79 µM (inactive). Moreover, the GI50 in [13] was 5.68 µM (inactive); in [14] it was 5.53 µM (inactive); in [15], 2.71 µM (inactive).
For the molecule `Cn1c(=O)oc2cc(C3CCC(=O)N3Cc3csc(-c4ccccc4)n3)ccc21` (centres undefined), the GI50 was > 100 µM (inactive) in assay [1]; > 100 µM (inactive) in [2]; > 100 µM (inactive) in assay [3]; > 100 µM (inactive) in assay [16]; > 100 µM (inactive) in assay [4]; 76.2 µM (inactive) in assay [5]. Also, the GI50 in assay [6], in [7], in [8], in [9], in assay [11] and in assay [12] was > 100 µM (inactive) in each case. In addition, the GI50 in assay [13], in [14] and in assay [15] was > 100 µM (inactive) each time.
Regarding `Cc1c(C2Cc3ccccc3N2)c2ccccc2n1C` (centres undefined), the GI50 in assay [1], in assay [2], in [3], in assay [16], in assay [4] and in [5] was > 100 µM (inactive) in each case. Also, the GI50 in [6], in assay [7], in [8], in [9], in assay [10] and in assay [11] was > 100 µM (inactive) each time. The GI50 in [12] was 79.1 µM (inactive); in assay [14], > 100 µM (inactive); in assay [15] it was > 100 µM (inactive).
As to `O=[N+]([O-])C(=C1c2ccccc2-c2ccccc21)[N+](=O)[O-]`, the GI50 in assay [1] was 91.2 µM (inactive); in assay [2], 38.5 µM (inactive); in assay [3], 52.8 µM (inactive); in assay [4], 70.5 µM (inactive); in [5], 57.5 µM (inactive); in [6], > 100 µM (inactive). For the same molecule, the GI50 in [7] is 61.5 µM (inactive); in [9], > 100 µM (inactive); in assay [10], > 100 µM (inactive); in assay [11], 49.3 µM (inactive); in [12], 48 µM (inactive); in assay [13] it was > 100 µM (inactive). Also, the GI50 was > 100 µM (inactive) in [14] and 20.9 µM (inactive) in assay [15].
For the molecule `CC(C)CC(CNC(Cc1ccc(Cl)cc1)C(N)=O)NC(=O)C(Cc1c[nH]cn1)NC(=O)CNC(=O)C(NC(=O)C(C)NC(=O)C(Cc1c[nH]c2ccccc12)NC(=O)C(CCC(=O)O)NC(=O)C(N)Cc1ccccc1)C(C)C` (centres undefined), the GI50 in assay [2], in [3], in [4], in assay [5], in assay [6] and in [7] was > 133 µM (inactive) throughout. The GI50 in assay [17] was < 0.0133 µM (active); in assay [10], > 133 µM (inactive); in [11], > 133 µM (inactive); in assay [12], > 133 µM (inactive); in assay [13], > 133 µM (inactive); in [14], > 133 µM (inactive).
`CN(CCCN1C(=O)c2cccc3cc([N+](=O)[O-])cc(c23)C1=O)CCN(C)CCCN1C(=O)c2cccc3cc([N+](=O)[O-])cc(c23)C1=O`: the GI50 was > 39.3 µM (inactive) in assay [1]; 19.2 µM (inactive) in assay [2]; > 39.3 µM (inactive) in assay [3]; 25.9 µM (inactive) in [16]; 21.2 µM (inactive) in assay [4]; 24.7 µM (inactive) in assay [5]. In addition, the GI50 in [6] is 31.8 µM (inactive); in assay [7], 16 µM (inactive); in assay [8] it was 17.4 µM (inactive); in assay [9], > 39.3 µM (inactive); in assay [10], > 39.3 µM (inactive); in [11], 17 µM (inactive). Further, the GI50 was 6.73 µM (inactive) in assay [12], 25.5 µM (inactive) in [13], 2.74 µM (inactive) in [14] and 29 µM (inactive) in assay [15].
Consider `CCCc1n[nH]c(CCC(=O)N(Cc2ccccc2)Cc2ccccc2)c1CC`, for which the GI50 in assay [1], in assay [2], in assay [3], in [16], in assay [4] and in assay [5] was > 100 µM (inactive) in each case. In addition, the GI50 in assay [6], in assay [7], in assay [8], in [9], in [10] and in assay [11] was > 100 µM (inactive) throughout. The GI50 in assay [12], in [13], in assay [14] and in [15] was > 100 µM (inactive) in each case.
For `NC(N)NCCCc1cn2c(n1)C1CCCN1C(=O)C2Cc1ccccc1` (centres undefined), the GI50 in assay [1], in assay [2], in assay [3], in [16], in [4] and in assay [5] was > 100 µM (inactive) each time. In addition, the GI50 in [6], in assay [7], in assay [8], in [9], in [10] and in assay [11] was > 100 µM (inactive) throughout. The GI50 in assay [12], in [13], in [14] and in [15] was > 100 µM (inactive) each time.
